This passage reports EC50 results from patent US20240043404A1 (AbbVie Inc., priority 2009, published 2024).

Each structure is given as a SMILES string. Where only a bound is given, the exact number is not on record here.

In this experiment the test system is RS4;11 cells. Description: RS4;11 cell viability assay (CellTiter Glo).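 Further: acute lymphoblastic leukemia line RS4,11, EC50 derived from percentage of viable cells after treatment relative to untreated controls, cell killing taken as a measure of Bcl-2 inhibition.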 It counts as cell-based, human. The note with it: Homo sapiens, RS4-11, 48 h, 50,000 cells per well, 10% human serum, 48 hours; read-out: RS4; 11 EC50 Values.
Experimental: The acute lymphoblastic leukemia (ALL) cell line RS4;11 was used as the primary human cell line to assess the cellular activity of Bcl-2 selective agents in vitro and their efficacy in vivo.
Cell cytotoxicity EC50 values were assessed using CellTiter Glo (Promega) according to the manufacturer's recommendations. The EC50 values were determined as a percentage of viable cells following treatment compared to the untreated control cells.
With `COCCOCCN1CC[C@@H](Nc2ccc(S(=O)(=O)NC(=O)c3ccc(N4CCN(CC5=C(c6ccc(Cl)cc6)CC(C)(C)CC5)CC4)cc3Oc3cnc4[nH]ccc4c3)cc2[N+](=O)[O-])C1` [Example 254, 4-(4-{[2-(4-chlorophenyl)-4,4-dimethylcyclohex-1-en-1-yl]methyl}piperazin-1-yl)-N-{[4-({(3R)-1-[2-(2-methoxyethoxy)ethyl]pyrrolidin-3-yl}amino)-3-nitrophenyl]sulfonyl}-2-(1H-pyrrolo[2,3-b]pyridin-5-yloxy)benzamide], the EC50 turned out to be 19.9 nM. As for `CN(C)CC(=O)N1CC[C@@H](Nc2ccc(S(=O)(=O)NC(=O)c3ccc(N4CCN(CC5=C(c6ccc(Cl)cc6)CC(C)(C)CC5)CC4)cc3Oc3cnc4[nH]ccc4c3)cc2[N+](=O)[O-])C1` [Example 255, 4-(4-{[2-(4-chlorophenyl)-4,4-dimethylcyclohex-1-en-1-yl]methyl}piperazin-1-yl)-N-[(4-{[(3R)-1-(N,N-dimethylglycyl)pyrrolidin-3-yl]amino}-3-nitrophenyl)sulfonyl]-2-(1H-pyrrolo[2,3-b]pyridin-5-yloxy)benzamide], the figure is 9 nM; as for `CC1(C)CCC(CN2CCN(c3ccc(C(=O)NS(=O)(=O)c4ccc(NC5CN(C6COC6)C5)c([N+](=O)[O-])c4)c(Oc4cnc5[nH]ccc5c4)c3)CC2)=C(c2ccc(Cl)cc2)C1` [Example 256, 4-(4-{[2-(4-chlorophenyl)-4,4-dimethylcyclohex-1-en-1-yl]methyl}piperazin-1-yl)-N-[(3-nitro-4-{[1-(oxetan-3-yl)azetidin-3-yl]amino}phenyl)sulfonyl]-2-(1H-pyrrolo[2,3-b]pyridin-5-yloxy)benzamide], 18 nM. `CC1(C)CCC(CN2CCN(c3ccc(C(=O)NS(=O)(=O)c4cnc(OCC5(F)CCN(CC#N)CC5)c(Cl)c4)c(Oc4cnc5[nH]ccc5c4)c3)CC2)=C(c2ccc(Cl)cc2)C1` [Example 257, N-[(5-chloro-6-{[1-(cyanomethyl)-4-fluoropiperidin-4-yl]methoxy}pyridin-3-yl)sulfonyl]-4-(4-{[2-(4-chlorophenyl)-4,4-dimethylcyclohex-1-en-1-yl]methyl}piperazin-1-yl)-2-(1H-pyrrolo[2,3-b]pyridin-5-yloxy)benzamide]: the EC50 stood at 26 nM.

As for `CN(C)CC(=O)N1CCO[C@H](CNc2ccc(S(=O)(=O)NC(=O)c3ccc(N4CCN(CC5=C(c6ccc(Cl)cc6)CC(C)(C)CC5)CC4)cc3Oc3cnc4[nH]ccc4c3)cc2[N+](=O)[O-])C1` [Example 258, 4-(4-{[2-(4-chlorophenyl)-4,4-dimethylcyclohex-1-en-1-yl]methyl}piperazin-1-yl)-N-{[4-({[(2R)-4-(N,N-dimethylglycyl)morpholin-2-yl]methyl}amino)-3-nitrophenyl]sulfonyl}-2-(1H-pyrrolo[2,3-b]pyridin-5-yloxy)benzamide], the EC50 amounted to 0.553 nM. With `CN(C)CC(=O)N1CCO[C@@H](CNc2ccc(S(=O)(=O)NC(=O)c3ccc(N4CCN(CC5=C(c6ccc(Cl)cc6)CC(C)(C)CC5)CC4)cc3Oc3cnc4[nH]ccc4c3)cc2[N+](=O)[O-])C1` [Example 259, 4-(4-{[2-(4-chlorophenyl)-4,4-dimethylcyclohex-1-en-1-yl]methyl}piperazin-1-yl)-N-{[4-({[(2S)-4-(N,N-dimethylglycyl)morpholin-2-yl]methyl}amino)-3-nitrophenyl]sulfonyl}-2-(1H-pyrrolo[2,3-b]pyridin-5-yloxy)benzamide], the EC50 worked out at 0.388 nM. As for `CN(C)CC(=O)N1CCC(COc2ncc(S(=O)(=O)NC(=O)c3ccc(N4CCN(CC5=C(c6ccc(Cl)cc6)CC(C)(C)CC5)CC4)cc3Oc3cnc4[nH]ccc4c3)cc2Cl)CC1` [Example 260, N-[(5-chloro-6-{[1-(N,N-dimethylglycyl)piperidin-4-yl]methoxy}pyridin-3-yl)sulfonyl]-4-(4-{[2-(4-chlorophenyl)-4,4-dimethylcyclohex-1-en-1-yl]methyl}piperazin-1-yl)-2-(1H-pyrrolo[2,3-b]pyridin-5-yloxy)benzamide], the figure is 5.43 nM; as for `CC1(C)CCC(CN2CCN(c3ccc(C(=O)NS(=O)(=O)c4cnc(O[C@@H]5CCN(CC(F)F)C5)c(Cl)c4)c(Oc4cnc5[nH]ccc5c4)c3)CC2)=C(c2ccc(Cl)cc2)C1` [Example 261, N-[(5-chloro-6-{[(3R)-1-(2,2-difluoroethyl)pyrrolidin-3-yl]oxy}pyridin-3-yl)sulfonyl]-4-(4-{[2-(4-chlorophenyl)-4,4-dimethylcyclohex-1-en-1-yl]methyl}piperazin-1-yl)-2-(1H-pyrrolo[2,3-b]pyridin-5-yloxy)benzamide], 184 nM; as for `CC1(C)CCC(CN2CCN(c3ccc(C(=O)NS(=O)(=O)c4ccc(N[C@@H]5CCN(CC#N)C5)c([N+](=O)[O-])c4)c(Oc4cnc5[nH]ccc5c4)c3)CC2)=C(c2ccc(Cl)cc2)C1` [Example 262, 4-(4-{[2-(4-chlorophenyl)-4,4-dimethylcyclohex-1-en-1-yl]methyl}piperazin-1-yl)-N-[(4-{[(3R)-1-(cyanomethyl)pyrrolidin-3-yl]amino}-3-nitrophenyl)sulfonyl]-2-(1H-pyrrolo[2,3-b]pyridin-5-yloxy)benzamide], 16.3 nM. As to `COC1(Cc2ccccc2-c2ccc(Cl)cc2)CCN(c2ccc(C(=O)NS(=O)(=O)c3cnc(OCC4(F)CCOCC4)c(Cl)c3)c(Oc3cnc4[nH]ccc4c3)c2)CC1` [Example 263, 4-{4-[(4′-chlorobiphenyl-2-yl)methyl]-4-methoxypiperidin-1-yl}-N-({5-chloro-6-[(4-fluorotetrahydro-2H-pyran-4-yl)methoxy]pyridin-3-yl}sulfonyl)-2-(1H-pyrrolo[2,3-b]pyridin-5-yloxy)benzamide], the EC50 is greater than 1000 nM. Then `COC1(Cc2ccccc2-c2ccc(Cl)cc2)CCN(c2ccc(C(=O)NS(=O)(=O)c3ccc(NCC4CCOCC4)c([N+](=O)[O-])c3)c(Oc3cnc4[nH]ccc4c3)c2)CC1` [Example 264, 4-{4-[(4′-chlorobiphenyl-2-yl)methyl]-4-methoxypiperidin-1-yl}-N-({3-nitro-4-[(tetrahydro-2H-pyran-4-ylmethyl)amino]phenyl}sulfonyl)-2-(1H-pyrrolo[2,3-b]pyridin-5-yloxy)benzamide], with 689 nM; and `O=C(NS(=O)(=O)c1ccc(NCC2CCOCC2)c([N+](=O)[O-])c1)c1ccc(N2CCN(CC3=C(c4ccc(Cl)cc4)CCC4(CCN(C(CF)CF)CC4)C3)CC2)cc1Oc1cnc2[nH]ccc2c1` [Example 265, 4-(4-{[9-(4-chlorophenyl)-3-(1,3-difluoropropan-2-yl)-3-azaspiro[5.5]undec-8-en-8-yl]methyl}piperazin-1-yl)-N-({3-nitro-4-[(tetrahydro-2H-pyran-4-ylmethyl)amino]phenyl}sulfonyl)-2-(1H-pyrrolo[2,3-b]pyridin-5-yloxy)benzamide], with 7.17 nM; and `CC(C)N1CCC2(CCC(c3ccc(Cl)cc3)=C(CN3CCN(c4ccc(C(=O)NS(=O)(=O)c5ccc(NCC6CCOCC6)c([N+](=O)[O-])c5)c(Oc5cnc6[nH]ccc6c5)c4)CC3)C2)CC1` [Example 266, 4-(4-{[9-(4-chlorophenyl)-3-isopropyl-3-azaspiro[5.5]undec-8-en-8-yl]methyl}piperazin-1-yl)-N-({3-nitro-4-[(tetrahydro-2H-pyran-4-ylmethyl)amino]phenyl}sulfonyl)-2-(1H-pyrrolo[2,3-b]pyridin-5-yloxy)benzamide], with 7.29 nM. Take `O=C(NS(=O)(=O)c1cnc(OCC2CCOCC2)c(Cl)c1)c1ccc(N2CCN(CC3=C(c4ccc(Cl)cc4)CCC4(CCN(C(CF)CF)CC4)C3)CC2)cc1Oc1cnc2[nH]ccc2c1` [Example 267, 4-(4-{[9-(4-chlorophenyl)-3-(1,3-difluoropropan-2-yl)-3-azaspiro[5.5]undec-8-en-8-yl]methyl}piperazin-1-yl)-N-{[5-chloro-6-(tetrahydro-2H-pyran-4-ylmethoxy)pyridin-3-yl]sulfonyl}-2-(1H-pyrrolo[2,3-b]pyridin-5-yloxy)benzamide]: the EC50 is 69.4 nM.

In the case of `CC(C)N1CCC2(CCC(c3ccc(Cl)cc3)=C(CN3CCN(c4ccc(C(=O)NS(=O)(=O)c5cnc(OCC6CCOCC6)c(Cl)c5)c(Oc5cnc6[nH]ccc6c5)c4)CC3)C2)CC1` [Example 268, 4-(4-{[9-(4-chlorophenyl)-3-isopropyl-3-azaspiro[5.5]undec-8-en-8-yl]methyl}piperazin-1-yl)-N-{[5-chloro-6-(tetrahydro-2H-pyran-4-ylmethoxy)pyridin-3-yl]sulfonyl}-2-(1H-pyrrolo[2,3-b]pyridin-5-yloxy)benzamide], the EC50 came out at 48.8 nM.

Take `CN1CCC(F)(COc2ncc(S(=O)(=O)NC(=O)c3ccc(N4CCN(CC5=C(c6ccc(Cl)cc6)CC(C)(C)CC5)CC4)cc3Oc3cnc4[nH]ccc4c3)cc2Cl)CC1` [Example 269, N-({5-chloro-6-[(4-fluoro-1-methylpiperidin-4-yl)methoxy]pyridin-3-yl}sulfonyl)-4-(4-{[2-(4-chlorophenyl)-4,4-dimethylcyclohex-1-en-1-yl]methyl}piperazin-1-yl)-2-(1H-pyrrolo[2,3-b]pyridin-5-yloxy)benzamide]: the EC50 turned out to be 7.23 nM.

For the compound `CN(C)CC(=O)N1CCC(F)(COc2ncc(S(=O)(=O)NC(=O)c3ccc(N4CCN(CC5=C(c6ccc(Cl)cc6)CC(C)(C)CC5)CC4)cc3Oc3cnc4[nH]ccc4c3)cc2Cl)CC1` [Example 270, N-[(5-chloro-6-{[1-(N,N-dimethylglycyl)-4-fluoropiperidin-4-yl]methoxy}pyridin-3-yl)sulfonyl]-4-(4-{[2-(4-chlorophenyl)-4,4-dimethylcyclohex-1-en-1-yl]methyl}piperazin-1-yl)-2-(1H-pyrrolo[2,3-b]pyridin-5-yloxy)benzamide], the EC50 was 2.52 nM. Then `O=C(NS(=O)(=O)c1ccc(NCC2CCOCC2)c([N+](=O)[O-])c1)c1ccc(N2CCC(F)(Cc3ccccc3-c3ccc(Cl)cc3)CC2)cc1Oc1cnc2[nH]ccc2c1` [Example 271, 4-{4-[(4′-chlorobiphenyl-2-yl)methyl]-4-fluoropiperidin-1-yl}-N-({3-nitro-4-[(tetrahydro-2H-pyran-4-ylmethyl)amino]phenyl}sulfonyl)-2-(1H-pyrrolo[2,3-b]pyridin-5-yloxy)benzamide], with 437 nM.
